In patent publication US9326513B2, “Fungicidal compositions” (Syngenta Participations AG, priority 2011, dated 2016):

Key:
Type in all cases: in vivo
Conditions in all cases: foliar, compared to untreated control leaf disks, read-out: disease control
[1] = system: Blumeria graminis f. sp. tritici (Erysiphe graminis f. sp. tritici); test: Blumeria graminis f. sp. tritici / wheat / leaf disc preventative (powdery mildew on wheat)
Procedure: Blumeria graminis f. sp. tritici (Erysiphe graminis f. sp. tritici)/Wheat/Leaf Disc Preventative (Powdery Mildew on Wheat)
Wheat leaf segments cv. Kanzler were placed on agar in a multiwell plate (24-well format) and sprayed with the formulated test compound diluted in water. The leaf disks were inoculated by shaking powdery mildew infected plants above the test plates 1 day after application. The inoculated leaf disks were incubated at 20° C. and 60% rh under a light regime of 24 h darkness followed by 12 h light/12 h darkness in a climate chamber and the activity of a compound was assessed as percent disease control compared to untreated when an appropriate level of disease damage appears on untreated check leaf segments (6-8 days after application).
The following compounds gave at 200 ppm give at least 50% disease control in this test when compared to untreated control leaf disks under the same conditions, which show extensive disease development: […]

[2] = system: Puccinia recondita f. sp. tritici; test: Puccinia recondita f. sp. tritici / wheat / leaf disc curative (brown rust)
Procedure: Puccinia recondita f. sp. tritici/Wheat/Leaf Disc Curative (Brown Rust) Wheat leaf segments cv. Kanzler are placed on agar in multiwell plates (24-well format). The leaf segments are inoculated with a spore suspension of the fungus. Plates were stored in darkness at 19° C. and 75% rh. The formulated test compound diluted in water was applied 1 day after inoculation.

[3] = system: Puccinia recondita f. sp. tritici; test: Puccinia recondita f. sp. tritici / wheat / leaf disc preventative (brown rust)
Text: Puccinia recondita f. sp. tritici/Wheat/Leaf Disc Preventative (Brown Rust) Wheat leaf segments cv. Kanzler were placed on agar in multiwell plates (24-well format) and sprayed with the formulated test compound diluted in water. The leaf disks were inoculated with a spore suspension of the fungus 1 day after application.

CCN(C)/C=N/c1cc(Br)c(OC2C=CCCC2)nc1C (stereo not shown) [Q.172]
pest or weed control at 200 ppm [1]: ≥ 50%
pest or weed control at 200 ppm [2]: ≥ 50%
pest or weed control at 200 ppm [3]: ≥ 50%

CCN(C)/C=N/c1cc(Br)c(OC)nc1C [Q.387]
pest or weed control at 200 ppm [3]: ≥ 50%

CCN(C)/C=N/c1cc(Br)c(OC(C)c2ccccc2C#Cc2ccccc2)nc1C (stereo not shown) [Q.313]
pest or weed control at 200 ppm [3]: ≥ 50%

CCCOc1nc(C)c(/N=C/N(C)CC)cc1Br [Q.388]
pest or weed control at 200 ppm [1]: ≥ 50%
pest or weed control at 200 ppm [2]: ≥ 50%
pest or weed control at 200 ppm [3]: ≥ 50%

CCN(C)/C=N/c1cc(Br)c(OC2C=C(C)CCC2)nc1C (stereo not shown) [Q.173]
pest or weed control at 200 ppm [3]: ≥ 50%

CCN(C)/C=N/c1cc(Br)c(OC2CCCC3CCCCC32)nc1C (stereo not shown) [Q.049]
pest or weed control at 200 ppm [1]: ≥ 50%
pest or weed control at 200 ppm [2]: ≥ 50%
pest or weed control at 200 ppm [3]: ≥ 50%

C=CCN(C)/C=N/c1cc(Br)c(OC(C)c2cc(F)cc(F)c2)nc1C (stereo not shown) [Q.192]
pest or weed control at 200 ppm [1]: ≥ 50%
pest or weed control at 200 ppm [2]: ≥ 50%
pest or weed control at 200 ppm [3]: ≥ 50%

CCN(C)/C=N/c1cc(Br)c(OC2CCc3c(OC)cccc32)nc1C (stereo not shown) [Q.050]
pest or weed control at 200 ppm [1]: ≥ 50%
pest or weed control at 200 ppm [2]: ≥ 50%
pest or weed control at 200 ppm [3]: ≥ 50%

CCN(C)/C=N/c1cc(Br)c(OC(C)c2ccccc2Br)nc1C (stereo not shown) [Q.303]
pest or weed control at 200 ppm [1]: ≥ 50%
pest or weed control at 200 ppm [2]: ≥ 50%
pest or weed control at 200 ppm [3]: ≥ 50%

CCN(C)/C=N/c1cc(Br)c(OCc2cc(C(F)(F)F)cc(C(F)(F)F)c2)nc1C [Q.152]
pest or weed control at 200 ppm [1]: ≥ 50%
pest or weed control at 200 ppm [2]: ≥ 50%
pest or weed control at 200 ppm [3]: ≥ 50%

Cc1cc(C)cc(CC(C)Oc2ccc(/N=C/N(C)C(C)C)c(C)n2)c1 (stereo not shown) [Q.362]
pest or weed control at 200 ppm [2]: ≥ 50%
pest or weed control at 200 ppm [3]: ≥ 50%

CCC(Oc1ccc(/N=C/N(C)CC)c(C)n1)c1cc(C)cc(C)c1 (stereo not shown) [Q.359]
pest or weed control at 200 ppm [1]: ≥ 50%
pest or weed control at 200 ppm [2]: ≥ 50%
pest or weed control at 200 ppm [3]: ≥ 50%

CCCc1ccc(-c2cc(/N=C/N(C)CC)c(C)nc2OC(C)c2cc(F)cc(F)c2)cc1 (stereo not shown) [Q.267]
pest or weed control at 200 ppm [1]: ≥ 50%
pest or weed control at 200 ppm [3]: ≥ 50%

CCN(C)/C=N/c1cc(Br)c(OC2Cc3ccc(-c4ccccc4)cc3C2)nc1C (stereo not shown) [Q.142]
pest or weed control at 200 ppm [1]: ≥ 50%
pest or weed control at 200 ppm [3]: ≥ 50%

Cc1nc(OC2CCCCC2C)ccc1/N=C/N(C)C(C)C (stereo not shown) [Q.342]
pest or weed control at 200 ppm [1]: ≥ 50%
pest or weed control at 200 ppm [2]: ≥ 50%
pest or weed control at 200 ppm [3]: ≥ 50%

C=CCC(CC=C)Oc1nc(C)c(/N=C/N(C)CC)cc1Br [Q.140]
pest or weed control at 200 ppm [1]: ≥ 50%
pest or weed control at 200 ppm [2]: ≥ 50%
pest or weed control at 200 ppm [3]: ≥ 50%

CCN(C)/C=N/c1cc(Br)c(OCc2snc(-c3ccccc3)c2Br)nc1C [Q.108]
pest or weed control at 200 ppm [1]: ≥ 50%
pest or weed control at 200 ppm [3]: ≥ 50%

CCc1ccccc1C(C)Oc1nc(C)c(/N=C/N(C)CC)cc1Br (stereo not shown) [Q.283]
pest or weed control at 200 ppm [1]: ≥ 50%
pest or weed control at 200 ppm [2]: ≥ 50%
pest or weed control at 200 ppm [3]: ≥ 50%

C#CCN(C)/C=N/c1cc(Br)c(OC(C)c2cc(F)cc(F)c2)nc1C (stereo not shown) [Q.189]
pest or weed control at 200 ppm [3]: ≥ 50%

CCN(C)/C=N/c1cc(Br)c(OC(C)c2ccccc2C(F)F)nc1C (stereo not shown) [Q.290]
pest or weed control at 200 ppm [1]: ≥ 50%
pest or weed control at 200 ppm [2]: ≥ 50%
pest or weed control at 200 ppm [3]: ≥ 50%

CCN(C)/C=N/c1ccc(OCc2ccccc2OC)nc1C [Q.367]
pest or weed control at 200 ppm [1]: ≥ 50%
pest or weed control at 200 ppm [2]: ≥ 50%
pest or weed control at 200 ppm [3]: ≥ 50%

CCN(C)/C=N/c1cc(Br)c(OCc2ccccc2C)nc1Br [Q.397]
pest or weed control at 200 ppm [1]: ≥ 50%
pest or weed control at 200 ppm [2]: ≥ 50%
pest or weed control at 200 ppm [3]: ≥ 50%

CCN(C)/C=N/c1cc(Br)c(OC(C)c2cccc(C#Cc3ccccc3)c2)nc1C (stereo not shown) [Q.312]
pest or weed control at 200 ppm [1]: ≥ 50%
pest or weed control at 200 ppm [3]: ≥ 50%

CCN(C)/C=N/c1cc(Br)c(OCc2cc(F)c(F)c(F)c2)nc1C [Q.317]
pest or weed control at 200 ppm [1]: ≥ 50%
pest or weed control at 200 ppm [2]: ≥ 50%
pest or weed control at 200 ppm [3]: ≥ 50%

CCN(C)/C=N/c1cc(Br)c(OC2CCC(O)CC2)nc1C (stereo not shown) [Q.213]
pest or weed control at 200 ppm [1]: ≥ 50%
pest or weed control at 200 ppm [2]: ≥ 50%
pest or weed control at 200 ppm [3]: ≥ 50%

CC#Cc1cc(/N=C/N(C)CC)c(C)nc1OC1CCC(C(C)C)CC1 (stereo not shown) [Q.254]
pest or weed control at 200 ppm [2]: ≥ 50%
pest or weed control at 200 ppm [3]: ≥ 50%

CCN(C)/C=N/c1cc(Br)c(OCCO)nc1C [Q.056]
pest or weed control at 200 ppm [3]: ≥ 50%

CCN(C)/C=N/c1ccc(OC(C)c2cc(F)cc(F)c2)nc1C (stereo not shown) [Q.181]
pest or weed control at 200 ppm [1]: ≥ 50%
pest or weed control at 200 ppm [2]: ≥ 50%
pest or weed control at 200 ppm [3]: ≥ 50%

CCN(C)/C=N/c1cc(Br)c(OC2CCC(=O)CC2)nc1C [Q.031]
pest or weed control at 200 ppm [1]: ≥ 50%
pest or weed control at 200 ppm [2]: ≥ 50%
pest or weed control at 200 ppm [3]: ≥ 50%

CCN(C)/C=N/c1cc(Br)c(OC2CCCCC2C)nc1C (stereo not shown) [Q.084]
pest or weed control at 200 ppm [1]: ≥ 50%
pest or weed control at 200 ppm [2]: ≥ 50%
pest or weed control at 200 ppm [3]: ≥ 50%

CCN(C)/C=N/c1cc([Si](C)(C)C)c(OCc2ccccc2C)nc1C [Q.257]
pest or weed control at 200 ppm [2]: ≥ 50%
pest or weed control at 200 ppm [3]: ≥ 50%
